Each molecule was assayed against T1, P2X7 receptor (Homo sapiens, UniProt Q99572) (assay: Alternate method for IL-1β release assay (differentiated THP-1 cells, BzATP-stimulated, ELISA)). Conditions: P2X7; 0.1 μM compound (plus symbols); read-out: IL-1β % inhib @ 0.1 μM.
T1 construct: host or cells: THP-1 cells differentiated with LPS and IFN-γ
T1 sequence (Q99572 1-595): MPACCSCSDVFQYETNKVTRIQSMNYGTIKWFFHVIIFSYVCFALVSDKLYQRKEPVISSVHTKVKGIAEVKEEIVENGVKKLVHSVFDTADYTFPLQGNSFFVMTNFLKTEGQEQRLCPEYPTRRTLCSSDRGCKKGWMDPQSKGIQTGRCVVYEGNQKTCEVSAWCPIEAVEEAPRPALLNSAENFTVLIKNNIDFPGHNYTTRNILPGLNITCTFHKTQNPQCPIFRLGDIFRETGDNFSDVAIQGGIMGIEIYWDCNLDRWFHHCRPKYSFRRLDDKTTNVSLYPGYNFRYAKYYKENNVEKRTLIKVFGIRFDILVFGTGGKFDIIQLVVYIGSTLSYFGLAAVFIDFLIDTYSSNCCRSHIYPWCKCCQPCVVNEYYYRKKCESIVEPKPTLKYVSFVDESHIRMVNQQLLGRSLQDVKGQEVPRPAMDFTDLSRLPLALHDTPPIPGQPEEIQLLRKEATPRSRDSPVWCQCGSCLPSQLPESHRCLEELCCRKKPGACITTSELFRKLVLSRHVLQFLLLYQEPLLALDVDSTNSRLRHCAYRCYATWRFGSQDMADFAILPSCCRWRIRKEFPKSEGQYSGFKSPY
Assay type: cell-based
Protocol: Alternate Method for IL-1β Release Assay
THP-1 cells (ATCC Cat #285-IF-100) are plated in 96 well plates at a concentration of 200,000 cells per well and allowed to differentiate in RPMI-1640 media (ATCC Cat #30-2001) containing 10% FBS, 100 IU/mL penicillin, 100 ug/mL streptomycin, 100 ng/mL LPS and 100 ng/mL IFN-γ for 16 hours. Following differentiation, the cells are treated for an additional 2 hours in RPMI-1640 media containing 100 IU/mL penicillin, 100 ug/mL streptomycin and fresh LPS at 100 ng/mL. The cells are then pretreated for 30 minutes with the compound of interest at the appropriate concentration in RPMI media containing 100 IU/mL penicillin, 100 ug/mL streptomycin. Following the pretreatment 2′,3′-O-(4-benzoylbenzoyl)-adenosine 5′-triphosphate (Sigma Aldrich Cat# B6396) is added to a final concentration of 250 uM and the cells incubated for an additional 45 minutes. 30 uL of cell supernatant is then collected and IL-1β levels determined via ELISA (R&D systems Cat. # HSLB50) according to manufacturers recommendations using the Tecan Safire plate reader. Background adjusted IL-1β levels of drug treated and non-treated cells are used to calculate the percent inhibition.

| inhibition at 0.1 µM | Structure (SMILES) |
| --- | --- |
| > 75% | O=C(c1ccno1)N1CCc2c(ncnc2NCC23CC4CC(CC(C4)C2)C3)C1 [Compound 149] |

Same assay, conditions: P2X7; 0.1 μM compound (symbols + to ++++); read-out: IL-1β % inhib @ 0.1 μM

| inhibition at 0.1 µM | Structure (SMILES) |
| --- | --- |
| > 75% | c1cc(CN2CCc3c(ncnc3NCC34CC5CC(CC(C5)C3)C4)C2)c2c(c1)OCO2 [Compound 207] |

Same assay, conditions: P2X7; 0.3 μM compound (asterisk symbols); read-out: IL-1β % inhib @ 0.3 μM

| inhibition at 0.3 µM | Structure (SMILES) |
| --- | --- |
| 0 to 25% | Cc1cc(C(=O)N2CCc3c(ncnc3NCC34CC5CC(CC(C5)C3)C4)C2)nn1C [Compound 139] |
| 50 to 75% | O=C(c1ccc2ccccc2c1)N1CCc2c(ncnc2NCC23CC4CC(CC(C4)C2)C3)C1 [Compound 143] |
| 50 to 75% | Cc1ccc(C(=O)N2CCc3c(ncnc3NCC34CC5CC(CC(C5)C3)C4)C2)cc1 [Compound 144] |
| > 75% | Cc1cc(C(=O)N2CCc3c(ncnc3NCC34CC5CC(CC(C5)C3)C4)C2)c(C)o1 [Compound 146] |
| 0 to 25% | O=C(c1ccccc1Cl)N1CCc2c(ncnc2NCC23CC4CC(CC(C4)C2)C3)C1 [Compound 147] |
| 0 to 25% | CC(=O)N1CCC(C(=O)N2CCc3c(ncnc3NCC34CC5CC(CC(C5)C3)C4)C2)CC1 [Compound 148] |
| 25 to 50% | Cc1cc(C(=O)N2CCc3c(ncnc3NCC34CC5CC(CC(C5)C3)C4)C2)n(C(C)(C)C)n1 [Compound 151] |
| > 75% | CC(C)(C)c1ccc(C(=O)N2CCc3c(ncnc3NCC34CC5CC(CC(C5)C3)C4)C2)cc1 [Compound 152] |
| 0 to 25% | O=C(Cc1ccccc1Br)N1CCc2c(ncnc2NCC23CC4CC(CC(C4)C2)C3)C1 [Compound 153] |
| 25 to 50% | O=C(c1ccc2ccccc2n1)N1CCc2c(ncnc2NCC23CC4CC(CC(C4)C2)C3)C1 [Compound 154] |
| > 75% | COc1ccc(C(=O)N2CCc3c(ncnc3NCC34CC5CC(CC(C5)C3)C4)C2)cc1F [Compound 158] |
| > 75% | COc1ccc(C(=O)N2CCc3c(ncnc3NCC34CC5CC(CC(C5)C3)C4)C2)cc1OC [Compound 159] |
| > 75% | O=C(C1COc2ccccc2C1)N1CCc2c(ncnc2NCC23CC4CC(CC(C4)C2)C3)C1 (stereo not shown) [Compound 160] |
| > 75% | CC(CCN1CCc2c(ncnc2NCC23CC4CC(CC(C4)C2)C3)C1)CC(C)(C)C (stereo not shown) [Compound 163] |
| > 75% | c1ccc(C(CN2CCc3c(ncnc3NCC34CC5CC(CC(C5)C3)C4)C2)c2ccccc2)cc1 [Compound 164] |
| 0 to 25% | CC(CN1CCc2c(ncnc2NCC23CC4CC(CC(C4)C2)C3)C1)c1ccccc1 (stereo not shown) [Compound 165] |
| 0 to 25% | CCCN1CCc2c(ncnc2NCC23CC4CC(CC(C4)C2)C3)C1 [Compound 166] |
| > 75% | c1nc2c(c(NCC34CC5CC(CC(C5)C3)C4)n1)CCN(CC1CCCCC1)C2 [Compound 167] |
| 0 to 25% | c1nc2c(c(NCC34CC5CC(CC(C5)C3)C4)n1)CCN(CC1CC1)C2 [Compound 168] |
| > 75% | CCCCCN1CCc2c(ncnc2NCC23CC4CC(CC(C4)C2)C3)C1 [Compound 169] |

| inhibition at 0.3 µM | Structure (SMILES) |
| --- | --- |
| 0 to 25% | c1ccc(CCCN2CCc3c(ncnc3NCC34CC5CC(CC(C5)C3)C4)C2)cc1 [Compound 170] |
| 0 to 25% | COc1ccc(CN2CCc3c(ncnc3NCC34CC5CC(CC(C5)C3)C4)C2)cc1 [Compound 173] |
| 25 to 50% | c1nc2c(c(NCC34CC5CC(CC(C5)C3)C4)n1)CCN(Cc1ccc3c(c1)OCO3)C2 [Compound 175] |
| 0 to 25% | c1ccc2cc(CN3CCc4c(ncnc4NCC45CC6CC(CC(C6)C4)C5)C3)ccc2c1 [Compound 176] |
| 0 to 25% | COc1ccc(CN2CCc3c(ncnc3NCC34CC5CC(CC(C5)C3)C4)C2)cc1OC [Compound 177] |
| 25 to 50% | Cc1ccc2occ(CN3CCc4c(ncnc4NCC45CC6CC(CC(C6)C4)C5)C3)c(=O)c2c1 [Compound 178] |
| 25 to 50% | c1ccc(Oc2cccc(CN3CCc4c(ncnc4NCC45CC6CC(CC(C6)C4)C5)C3)c2)cc1 [Compound 179] |
| 25 to 50% | Clc1ccc(CN2CCc3c(ncnc3NCC34CC5CC(CC(C5)C3)C4)C2)c(Cl)c1 [Compound 181] |
| > 75% | N#Cc1cccc(CN2CCc3c(ncnc3NCC34CC5CC(CC(C5)C3)C4)C2)c1 [Compound 182] |
| > 75% | CC1(C)C2CC=C(CN3CCc4c(ncnc4NCC45CC6CC(CC(C6)C4)C5)C3)C1C2 (stereo not shown) [Compound 184] |
| 50 to 75% | c1ccc(Oc2ccc(CN3CCc4c(ncnc4NCC45CC6CC(CC(C6)C4)C5)C3)cc2)cc1 [Compound 187] |
| 0 to 25% | CCCCN1CCc2c(ncnc2NCC23CC4CC(CC(C4)C2)C3)C1 [Compound 189] |
| 25 to 50% | CCN1CCc2c(ncnc2NCC23CC4CC(CC(C4)C2)C3)C1 [Compound 190] |
| > 75% | CCC(CC)CN1CCc2c(ncnc2NCC23CC4CC(CC(C4)C2)C3)C1 [Compound 192] |
| > 75% | CCCC(C)CN1CCc2c(ncnc2NCC23CC4CC(CC(C4)C2)C3)C1 (stereo not shown) [Compound 193] |
| 25 to 50% | CC(C)CCN1CCc2c(ncnc2NCC23CC4CC(CC(C4)C2)C3)C1 [Compound 194] |
| > 75% | COc1cccc(CN2CCc3c(ncnc3NCC34CC5CC(CC(C5)C3)C4)C2)c1 [Compound 195] |
| 0 to 25% | Cc1ccc(CN2CCc3c(ncnc3NCC34CC5CC(CC(C5)C3)C4)C2)cc1C [Compound 196] |
| 0 to 25% | COc1ccc(CN2CCc3c(ncnc3NCC34CC5CC(CC(C5)C3)C4)C2)c(Cl)c1OC [Compound 197] |

Same assay, conditions: P2X7; 0.3 μM compound (symbols * to ****); read-out: IL-1β % inhib @ 0.3 μM

| inhibition at 0.3 µM | Structure (SMILES) |
| --- | --- |
| 0 to 25% | Brc1cc2c(cc1CN1CCc3c(ncnc3NCC34CC5CC(CC(C5)C3)C4)C1)OCO2 [Compound 198] |
| 0 to 25% | COc1cc(CN2CCc3c(ncnc3NCC34CC5CC(CC(C5)C3)C4)C2)ccc1OCc1ccccc1 [Compound 199] |
| 0 to 25% | c1nc2c(c(NCC34CC5CC(CC(C5)C3)C4)n1)CCN(Cc1ccc3c(c1)OCCO3)C2 [Compound 200] |
| 0 to 25% | Clc1ccc(CN2CCc3c(ncnc3NCC34CC5CC(CC(C5)C3)C4)C2)cc1Cl [Compound 201] |
| > 75% | COc1cccc(CN2CCc3c(ncnc3NCC34CC5CC(CC(C5)C3)C4)C2)c1OC [Compound 202] |
| 0 to 25% | COc1ccc(CN2CCc3c(ncnc3NCC34CC5CC(CC(C5)C3)C4)C2)cc1OCc1ccccc1 [Compound 203] |
| 0 to 25% | COc1ccc(CN2CCc3c(ncnc3NCC34CC5CC(CC(C5)C3)C4)C2)cc1O [Compound 204] |
| 0 to 25% | COc1cc(CN2CCc3c(ncnc3NCC34CC5CC(CC(C5)C3)C4)C2)cc(Br)c1OC [Compound 205] |
| > 75% | N#Cc1cc(CN2CCc3c(ncnc3NCC34CC5CC(CC(C5)C3)C4)C2)ccc1F [Compound 206] |
| > 75% | Brc1ccc(CN2CCc3c(ncnc3NCC34CC5CC(CC(C5)C3)C4)C2)cc1 [Compound 208] |
| 0 to 25% | Clc1cccc(CN2CCc3c(ncnc3NCC34CC5CC(CC(C5)C3)C4)C2)c1 [Compound 209] |
| 0 to 25% | Clc1cc2c(cc1CN1CCc3c(ncnc3NCC34CC5CC(CC(C5)C3)C4)C1)OCO2 [Compound 210] |
| > 75% | CC(C)(C)CN1CCc2c(ncnc2NCC23CC4CC(CC(C4)C2)C3)C1 [Compound 211] |
| > 75% | Clc1ccc(CN2CCc3c(ncnc3NCC34CC5CC(CC(C5)C3)C4)C2)cc1 [Compound 212] |
| 25 to 50% | N#Cc1ccc(CN2CCc3c(ncnc3NCC34CC5CC(CC(C5)C3)C4)C2)cc1 [Compound 214] |
| 0 to 25% | FC(F)(F)c1ccc(CN2CCc3c(ncnc3NCC34CC5CC(CC(C5)C3)C4)C2)cc1 [Compound 215] |
| > 75% | Fc1cccc(CN2CCc3c(ncnc3NCC34CC5CC(CC(C5)C3)C4)C2)c1 [Compound 216] |
| > 75% | Cc1cccc(CN2CCc3c(ncnc3NCC34CC5CC(CC(C5)C3)C4)C2)c1 [Compound 217] |
| > 75% | Fc1ccc(CN2CCc3c(ncnc3NCC34CC5CC(CC(C5)C3)C4)C2)cc1 [Compound 218] |
| 0 to 25% | COc1ccc(CN2CCc3c(ncnc3NCC34CC5CC(CC(C5)C3)C4)C2)c(OC)c1 [Compound 219] |

Source: patent publication US20100022531A1, “NOVEL COMPOUNDS AS P2X7 MODULATORS AND USES THEREOF” (RENOVIS, INC., priority 2005, published 2010)
